Values after ≈ are worked out from the molar mass of the structure shown. Square brackets hold non-standard residues; d marks the D form. Ends that are not written are not given here. Peptide text beside a SMILES is read from it.
Columns and labels:
S. aureus ATCC 29213 [1] = test: MIC, broth dilution; assay type: cell-based, Staphylococcus aureus; conditions: for MIC S. aureus ATCC 29213: Table 5, STIP3 variants, highest concentration 100 μg/mL; for MIC (μg/mL) S. aureus: liquid broth
Summary of the method: (§1)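 Peptides (95% purity) were serially diluted 2-fold and mixed with bacteria diluted to OD 6×10^−4 in cation-adjusted Mueller Hinton broth. Standing cultures were incubated overnight at 37° C. MIC was the lowest peptide concentration with no observed growth.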

[2] = test system: S. aureus ATCC 33592 (MRSA SCCmec type III); test: MIC, broth dilution; assay type: cell-based, Staphylococcus aureus; conditions: Table 5; STIP3 variants, highest concentration 100 μg/mL
Summary of the method: as §1

[3] = test system: S. aureus / MRSA (ATCC MP-2 panel); assay type: cell-based, Staphylococcus aureus
Procedure: In order to begin to characterize STIP3-1 and potential sites amenable to modification, an alanine scanning experiment was performed. A total of 16 peptides with single alanine substitutions were assessed to inform on the importance of individual residues to antimicrobial activity. […] Next a series of thirty STIP3-1 variants were designed, guided by the aforementioned alanine scan and a previous report that the central α-helical core of the S. aureus δ-toxin could be converted into AMP through the inclusion of additional lysine residues^39. The collection included ten members with single substitutions relative to STIP3-1 and others that incorporated a number of changes that were designed to increase overall and local cationic charge as well as hydrophobic character (Table 5). Each of the STIPs was screened, including STIP3-1 to STIP-31, for antibiotic activity against a methicillin-sensitive S. aureus test organism and a panel of 7 MRSA strains defined by distinct SCCmec genotypes (FIG. 2; ATCC MP-2).
(§2) Determination of minimum inhibitory concentrations. The MICs were measured for bioactive peptides identified from the initial screen. For bacterial studies, cation-adjusted Mueller Hinton (MH) broth was used as the growth medium whereas YPD was used for C. albicans. Bacterial cultures were diluted to a OD value of 6×10^−4 in MH broth and a 180 μl volume was mixed with 20 μl of peptide arrayed as 2-fold dilution series in a 96-well plate. For the positive control, 20 μl of sterile water was used. Plates were incubated as standing cultures overnight at 37° C. The lowest peptide concentration that resulted no observed microbial growth after an overnight treatment was defined as the MIC.

C. albicans MYA-2876 = test: MIC, YPD broth; assay type: cell-based, Candida albicans; conditions: Table 8
Summary of the method: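 Minimum inhibitory concentrations against Candida albicans were determined in YPD broth (10 g/L yeast extract, 20 g/L peptone, 20 g/L dextrose) using peptides of 95% purity. A 180 μl volume of diluted yeast was combined with 20 μl of peptide in a 2-fold dilution series in 96-well plates, with sterile water as control, then incubated standing overnight at 37° C.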

C. albicans Y537 = test: MIC, YPD broth; assay type: cell-based, Candida albicans; conditions: Table 8
[4] = Circular dichroism spectroscopy; assay type: physicochemical; conditions: CD, 50% (v/v) TFE
Summary of the method: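 Secondary structure of peptides dissolved in water at 0.3–0.5 mg/mL was assessed by CD. Spectra were recorded from 180 to 260 nm at room temperature in a 0.1 cm quartz cuvette; water and 50% (v/v) TFE conditions were compared.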

M. luteus ATCC 4698 = test: MIC, broth dilution; assay type: cell-based, Micrococcus luteus; conditions: Table 4; liquid broth
Procedure: MIC determination. MICs were measured using peptides with 95% purity. For bacterial studies, cation-adjusted Mueller Hinton (MH) broth was used as the growth medium whereas Yeast Peptone Dextrose (YPD; 10 g/L yeast extract, 20 g/L peptone, 20 g/L dextrose) was used for Candida spp. and other yeast. Microorganisms were diluted to an optical density of […] in MH or YPD broth and a 180 μl volume was mixed with 20 μl of peptide arrayed as a 2-fold dilution series in a flat-bottom 96-well microtitre plate. A control was performed using 20 μl of sterile water. Plates were incubated as standing cultures overnight at 37° C.
as §2

[5] = test system: Mannheimia haemolytica ATCC 33393; test: MIC, broth dilution; assay type: cell-based
Summary of the method: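 Peptides (95% purity) in 2-fold dilution series were mixed with M. haemolytica diluted to OD 6×10^−4 in cation-adjusted Mueller Hinton broth and incubated standing overnight at 37 °C. MIC was the lowest concentration with no visible growth.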

S. aureus ATCC 29213 [6] = test: Spot-on-lawn assay; assay type: cell-based, Staphylococcus aureus; conditions: 50 μg peptide spotted on agar
Procedure: Spot-on-lawn assay. For the initial screen, peptides of ≥70% purity were used. Each peptide was resuspended in sterile water to a concentration of 10 mg/ml. To determine antimicrobial activities a spot-on-lawn assay was performed. M. luteus and S. aureus were used as indicator strains. To prepare test organisms, the optical density (OD) of overnight cultures were measured and the organisms were diluted to an initial OD of 0.05 in soft nutrient agar (0.4% w/v) at 50° C. Next, 3 mL of soft agar containing a test organism was overlaid on a solid 1.5% w/v nutrient agar plate (LB). A total of 50 μg of each peptide was spotted on the inoculated surface and plates were incubated for 16 to 48 h before being examined for zones of inhibition.
SspA protease treatment. SspA protease was resuspended at 2 mg/mL in 100 mM HEPES, pH 7.8. Proteolysis was achieved by incubation of 50 μg PSMs at 37° C. for ˜5 hours with 0.2 mg/mL SspA. The antimicrobial activity of the proteolytic products were assayed by spotting a 5 μL (˜45 μg) from each treated peptide on each test microorganism as described above.

[7] = test system: S. aureus ATCC BAA-1683 (MRSA SCCmec type IV); test: MIC, broth dilution; assay type: cell-based, Staphylococcus aureus; conditions: Table 5; STIP3 variants, highest concentration 100 μg/mL
Summary of the method: as §1

[8] = test system: S. aureus ATCC BAA-2094 (MRSA SCCmec type V); test: MIC, broth dilution; assay type: cell-based, Staphylococcus aureus; conditions: Table 5; STIP3 variants, highest concentration 100 μg/mL
Summary of the method: as §1

[9] = test system: S. aureus ATCC BAA-2313 (MRSA SCCmec type XI); test: MIC, broth dilution; assay type: cell-based, Staphylococcus aureus; conditions: Table 5; STIP3 variants, highest concentration 100 μg/mL
Summary of the method: as §1

[10] = test system: S. aureus ATCC BAA-41 (MRSA SCCmec type II); test: MIC, broth dilution; assay type: cell-based, Staphylococcus aureus; conditions: Table 5; STIP3 variants, highest concentration 100 μg/mL
Summary of the method: as §1

[11] = test system: S. aureus ATCC BAA-42 (MRSA SCCmec type VI); test: MIC, broth dilution; assay type: cell-based, Staphylococcus aureus; conditions: Table 5; STIP3 variants, highest concentration 100 μg/mL
Summary of the method: as §1

[12] = test system: S. aureus ATCC BAA-44 (MRSA SCCmec type I); test: MIC, broth dilution; assay type: cell-based, Staphylococcus aureus; conditions: Table 5; STIP3 variants, highest concentration 100 μg/mL
Summary of the method: as §1

[13] = test system: Candida duobushaemulonii AR 392; test: MIC, YPD broth, CDC and FDA AR Candida isolate panel; assay type: cell-based; conditions: Table 9 top part: titrations from 1.56 to 100 μg/mL
Summary of the method: (§3)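 Inhibitory concentration was assigned over a 2-fold peptide dilution range after incubation without shaking at 37° C overnight; inoculum was set to optical density […] and water-only wells served as control.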

Candida krusei AR 397 = test: as above; assay type: cell-based; conditions: Table 9 top part: titrations from 1.56 to 100 μg/mL
Summary of the method: as §3

Kodamae ohmeri AR 396 = test: as above; assay type: cell-based; conditions: Table 9 top part: titrations from 1.56 to 100 μg/mL
Summary of the method: as §3

[14] = test system: Saccharomyces cerevisiae AR 399; test: as above; assay type: cell-based; conditions: Table 9 top part: titrations from 1.56 to 100 μg/mL
Summary of the method: as §3

[15] = test system: Saccharomyces cerevisiae AR 400; test: as above; assay type: cell-based; conditions: Table 9 top part: titrations from 1.56 to 100 μg/mL
Summary of the method: as §3

| Compound | MIC (μg/mL) M. luteus (M. luteus ATCC 4698) [µg/mL] | MIC (μg/mL) S. aureus (S. aureus ATCC 29213 [1]; Table 4) | MIC (μg/mL) M. haemolytica ([5]; Table 10, liquid broth) [µg/mL] | inhibition of S. aureus, spot-on-lawn (S. aureus ATCC 29213 [6]) | MIC (μg/mL) S. aureus (S. aureus ATCC 29213 [1]; Table 10) | also measured |
| --- | --- | --- | --- | --- | --- | --- |
| CC[C@H](C)[C@H](NC(=O)[C@H](Cc1c[nH]c2ccccc12)NC(=O)[C@H](CCCCN)NC(=O)[C@@H](NC(=O)[C@H](CC(C)C)NC(=O)CNC(=O)CNC(=O)[C@@H](NC(=O)[C@@H](N)[C@@H](C)O)C(C)C)C(C)C)C(=O)N[C@@H](CC(C)C)C(=O)N[C@H](CCCCN)C(=O)N[C@H](C(=O)N[C@H](C(=O)N[C@@H](CCCCN)C(=O)N[C@@H](CCCCN)C(=O)N[C@@H](Cc1ccccc1)C(=O)N[C@@H](C)C(N)=O)C(C)C)[C@@H](C)O [STIP3-29-D1, TVGGLVKWILKTVKKFA-NH2] (H-TVGGLVKWIL[dK]TVKKFA-NH2; N-terminus assumed) |  |  |  |  |  | MIC S. aureus ATCC 29213 (S. aureus ATCC 29213 [1]): 12.5 mg/L (≈ 6.62 µM); MIC S. aureus ATCC 33592 (III) [2]: 25 mg/L (≈ 13.2 µM); fold increase of MIC relative to STIP3-29 [3]: 4 fold; MIC C. albicans MYA-2876 (C. albicans MYA-2876): 12.5 mg/L (≈ 6.62 µM); MIC C. albicans Y537 (C. albicans Y537): 25 mg/L (≈ 13.2 µM); α helicity (%) [4]: 51% |
| AVGGLVKWILDTVKKFA [T1A, AVGGLVKWILDTVKKFA] | 12.5 | 200 µg/mL | 50 | observed to inhibit S. aureus |  |  |
| TVAGLVKWILDTVKKFA [G3A, TVAGLVKWILDTVKKFA] | 50 | >^b (> = >200 μg/mL (maximum concentration tested)) | 100 | observed to inhibit S. aureus | >^b (the use of > indicates an MIC > 200 μg/mL; the maximum concentration tested) |  |
| TVGALVKWILDTVKKFA [G4A, TVGALVKWILDTVKKFA] | 12.5 | >^b (> = >200 μg/mL (maximum concentration tested)) | 50 | observed to inhibit S. aureus | >^b (the use of > indicates an MIC > 200 μg/mL; the maximum concentration tested) |  |
| TVGGLVKWILATVKKFA [STIP3-2, TVGGLVKWILATVKKFA] | 3.13 | 100 µg/mL | 50 | observed to inhibit S. aureus |  | MIC S. aureus ATCC 29213 (S. aureus ATCC 29213 [1]): 100 mg/L; MIC S. aureus ATCC 33592 (III) [2]: 50 mg/L; MIC S. aureus ATCC BAA 1683 (IV) [7]: 50 mg/L; MIC S. aureus ATCC BAA 2094 (V) [8]: 50 mg/L; MIC S. aureus ATCC BAA 2313 (XI) [9]: 50 mg/L; MIC S. aureus ATCC BAA 41 (II) [10]: 100 mg/L; MIC S. aureus ATCC BAA 42 (VI) [11]: 50 mg/L; MIC S. aureus ATCC BAA 44 (I) [12]: 100 mg/L; MIC (μg/mL) M. haemolytica ([5]; Table 11, highest concentration 25 μg/mL): 25 µg/mL; MIC C. albicans MYA-2876 (C. albicans MYA-2876): 100 mg/L; MIC (μg/mL) Candida duobushaemulonii AR 392 [13]: > (MIC values reported at the top of the table (above the double line) are based on titrations from 1.56 to 100 μg/mL); MIC (μg/mL) Candida krusei AR 397 (Candida krusei AR 397): 50 µg/mL; MIC (μg/mL) Kodamae ohmeri AR 396 (Kodamae ohmeri AR 396): 100 µg/mL; MIC (μg/mL) Saccharomyces cerevisiae AR 399 [14]: 50 µg/mL; MIC (μg/mL) Saccharomyces cerevisiae AR 400 [15]: 100 µg/mL; α helicity (%) [4]: 50% |
| TVGGLVKWILDAVKKFA [T12A, TVGGLVKWILDAVKKFA] | 12.5 | 100 µg/mL | 50 | observed to inhibit S. aureus |  |  |
| TVGGLVKWILDTVAKFA [K14A, TVGGLVKWILDTVAKFA] | 12.5 | >^b (> = >200 μg/mL (maximum concentration tested)) | 100 | observed to inhibit S. aureus | >^b (the use of > indicates an MIC > 200 μg/mL; the maximum concentration tested) |  |
| TVGGLVKWILDTVKAFA [K15A, TVGGLVKWILDTVKAFA] | 25 | >^b (> = >200 μg/mL (maximum concentration tested)) | 50 | observed to inhibit S. aureus | >^b (the use of > indicates an MIC > 200 μg/mL; the maximum concentration tested) |  |

From patent US12370235B2, “Synthetic, non-natural antimicrobial peptides inspired by Staphylococcus auricularis delta toxin” (University of Saskatchewan, priority 2021, dated 2025)
